Results reported in ChEMBL document CHEMBL1201862, “PubChem BioAssay data set” (2004).
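All cell lines were grown in 96-well plates and treated with compound for 48 hours. The concentration for 50% growth inhibition is given as GI50.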 The source made the active and inactive calls. No stated cut-off is given here; in the data, active = GI50 up to about 1.1 µM and inactive = higher.

Assays:
Experiment in all cases: NCI tumour cell line growth inhibition, 48 h
[1] = system: 786-0
[2] = system: ACHN
[3] = system: CCRF-CEM
[4] = system: COLO 205
[5] = system: EKVX
[6] = system: HL-60
[7] = system: HOP-62
[8] = system: HOP-92
[9] = system: HT-29
[10] = system: IGROV-1
[11] = system: KM12
[12] = system: Malme-3M
[13] = system: NCI-H522
[14] = system: OVCAR-8
[15] = system: SK-MEL-2
[16] = system: SK-MEL-5
[17] = system: SNB-75
[18] = system: U-251
[19] = system: NCI/ADR-RES

| Compound | GI50 [1] | GI50 [2] | GI50 [3] | GI50 [4] | GI50 [5] | GI50 [6] | GI50 [7] | GI50 [8] | GI50 [9] | GI50 [10] | GI50 [11] | GI50 [12] | GI50 [13] | GI50 [14] | GI50 [15] | GI50 [16] | GI50 [17] | GI50 [18] | GI50 [19] |
| --- | --- | --- | --- | --- | --- | --- | --- | --- | --- | --- | --- | --- | --- | --- | --- | --- | --- | --- | --- |
| CNC(=O)OCc1nc(SSc2nc(COC(=O)NC)c(COC(=O)NC)n2C)n(C)c1COC(=O)NC | > 100 µM (inactive) | > 100 µM (inactive) | > 100 µM (inactive) | > 100 µM (inactive) | > 100 µM (inactive) | > 100 µM (inactive) | > 100 µM (inactive) | > 100 µM (inactive) | > 100 µM (inactive) | > 100 µM (inactive) | > 100 µM (inactive) | > 100 µM (inactive) | > 100 µM (inactive) | > 100 µM (inactive) | > 100 µM (inactive) | > 100 µM (inactive) | > 100 µM (inactive) | > 100 µM (inactive) | – |
| CCOC(=O)C1C(=S)NC(=O)C1C#N (stereo unspecified) | > 100 µM (inactive) | > 100 µM (inactive) | > 100 µM (inactive) | > 100 µM (inactive) | > 100 µM (inactive) | > 100 µM (inactive) | > 100 µM (inactive) | > 100 µM (inactive) | > 100 µM (inactive) | > 100 µM (inactive) | > 100 µM (inactive) | > 100 µM (inactive) | > 100 µM (inactive) | > 100 µM (inactive) | > 100 µM (inactive) | > 100 µM (inactive) | > 100 µM (inactive) | > 100 µM (inactive) | – |
| C/N=C(\N)N/N=C(\C)c1ccc2oc3ccc(/C(C)=N/N/C(N)=N/C)cc3c2c1 | 2.86 µM (inactive) | 5.45 µM (inactive) | 2.39 µM (inactive) | 3.27 µM (inactive) | 4.24 µM (inactive) | 2.89 µM (inactive) | 1.54 µM (inactive) | 2.07 µM (inactive) | 1.73 µM (inactive) | 2.24 µM (inactive) | 3.16 µM (inactive) | – | 1.67 µM (inactive) | 9.27 µM (inactive) | 2 µM (inactive) | 2.62 µM (inactive) | – | 1.61 µM (inactive) | > 39.1 µM (inactive) |
| C/C(=N\NC(N)=S)c1ccc2c(c1)OCO2 | > 100 µM (inactive) | > 100 µM (inactive) | 56.8 µM (inactive) | > 100 µM (inactive) | 13.9 µM (inactive) | 21.2 µM (inactive) | > 100 µM (inactive) | > 100 µM (inactive) | > 100 µM (inactive) | > 100 µM (inactive) | > 100 µM (inactive) | > 100 µM (inactive) | 32.4 µM (inactive) | > 100 µM (inactive) | > 100 µM (inactive) | > 100 µM (inactive) | > 100 µM (inactive) | > 100 µM (inactive) | – |
| O=C(Nc1c(O)[nH]c(=S)[nH]c1=O)c1ccccn1 | > 100 µM (inactive) | > 100 µM (inactive) | > 100 µM (inactive) | > 100 µM (inactive) | – | > 100 µM (inactive) | > 100 µM (inactive) | 39.1 µM (inactive) | > 100 µM (inactive) | > 100 µM (inactive) | > 100 µM (inactive) | > 100 µM (inactive) | > 100 µM (inactive) | > 100 µM (inactive) | > 100 µM (inactive) | > 100 µM (inactive) | > 100 µM (inactive) | > 100 µM (inactive) | – |
| O=C(c1c(O)cc(O)cc1O)C1Cc2ccccc21 (stereo unspecified) | 31.8 µM (inactive) | > 100 µM (inactive) | > 100 µM (inactive) | > 100 µM (inactive) | – | 74 µM (inactive) | 45.2 µM (inactive) | 19.1 µM (inactive) | > 100 µM (inactive) | > 100 µM (inactive) | > 100 µM (inactive) | > 100 µM (inactive) | 10.3 µM (inactive) | 39.2 µM (inactive) | > 100 µM (inactive) | > 100 µM (inactive) | 13.4 µM (inactive) | 47.2 µM (inactive) | – |
| Cc1nc(Cc2n[nH]c(C)n2)n[nH]1 | > 100 µM (inactive) | > 100 µM (inactive) | > 100 µM (inactive) | > 100 µM (inactive) | > 100 µM (inactive) | – | > 100 µM (inactive) | > 100 µM (inactive) | > 100 µM (inactive) | > 100 µM (inactive) | > 100 µM (inactive) | – | > 100 µM (inactive) | > 100 µM (inactive) | > 100 µM (inactive) | > 100 µM (inactive) | > 100 µM (inactive) | > 100 µM (inactive) | > 100 µM (inactive) |
| Fc1ccccc1C1SCc2nc3ccccc3n21 (stereo unspecified) | > 100 µM (inactive) | 38.1 µM (inactive) | 43.1 µM (inactive) | 77.3 µM (inactive) | 37.5 µM (inactive) | 11.9 µM (inactive) | – | 19.7 µM (inactive) | > 100 µM (inactive) | 60.5 µM (inactive) | 89.9 µM (inactive) | 55.3 µM (inactive) | 28 µM (inactive) | 49.4 µM (inactive) | 76.4 µM (inactive) | 18.8 µM (inactive) | 72.8 µM (inactive) | – | – |
| O=C1CCC2(c3ccc(Cl)cc3)Nc3ncccc3N12 (stereo unspecified) | > 100 µM (inactive) | > 100 µM (inactive) | > 100 µM (inactive) | > 100 µM (inactive) | > 100 µM (inactive) | > 100 µM (inactive) | > 100 µM (inactive) | > 100 µM (inactive) | > 100 µM (inactive) | > 100 µM (inactive) | > 100 µM (inactive) | > 100 µM (inactive) | > 100 µM (inactive) | > 100 µM (inactive) | > 100 µM (inactive) | > 100 µM (inactive) | 79.8 µM (inactive) | > 100 µM (inactive) | – |
| CCN(CC)CCCC(C)Nc1c(Sc2cnc3cc(Cl)ccc3c2NC(C)CCCN(CC)CC)cnc2cc(Cl)ccc12 (stereo unspecified) | 1.54 µM (inactive) | 1.98 µM (inactive) | 2.2 µM (inactive) | 1.46 µM (inactive) | – | 1.82 µM (inactive) | – | 1.96 µM (inactive) | 1.65 µM (inactive) | 1.87 µM (inactive) | 2.07 µM (inactive) | 2.13 µM (inactive) | 1.73 µM (inactive) | 1.69 µM (inactive) | 1.85 µM (inactive) | – | 1.51 µM (inactive) | 1.63 µM (inactive) | – |
| N#COc1ccc(Oc2ccccc2)cc1 | 34.6 µM (inactive) | 29.2 µM (inactive) | 24.5 µM (inactive) | 64 µM (inactive) | > 100 µM (inactive) | 26.3 µM (inactive) | 55.7 µM (inactive) | 43.8 µM (inactive) | 72.4 µM (inactive) | 68.4 µM (inactive) | > 100 µM (inactive) | > 100 µM (inactive) | 34.7 µM (inactive) | 49.5 µM (inactive) | 74.3 µM (inactive) | 46.6 µM (inactive) | 39.8 µM (inactive) | 42.7 µM (inactive) | – |
| CC(=O)OC1(C#N)CC2OC1C1C2N1C(=O)OC(C)(C)C (stereo unspecified) | > 100 µM (inactive) | > 100 µM (inactive) | > 100 µM (inactive) | > 100 µM (inactive) | > 100 µM (inactive) | > 100 µM (inactive) | > 100 µM (inactive) | > 100 µM (inactive) | – | > 100 µM (inactive) | – | > 100 µM (inactive) | > 100 µM (inactive) | > 100 µM (inactive) | > 100 µM (inactive) | > 100 µM (inactive) | > 100 µM (inactive) | > 100 µM (inactive) | – |
| N#CC1CC2(CCN1C(=O)c1ccccc1)OCCO2 (stereo unspecified) | > 100 µM (inactive) | > 100 µM (inactive) | > 100 µM (inactive) | > 100 µM (inactive) | > 100 µM (inactive) | > 100 µM (inactive) | > 100 µM (inactive) | > 100 µM (inactive) | > 100 µM (inactive) | > 100 µM (inactive) | > 100 µM (inactive) | > 100 µM (inactive) | 0.308 µM (active) | > 100 µM (inactive) | > 100 µM (inactive) | > 100 µM (inactive) | > 100 µM (inactive) | > 100 µM (inactive) | – |
| COc1ccc2c3c1C(=O)CCCC3CO2 (stereo unspecified) | > 100 µM (inactive) | > 100 µM (inactive) | > 100 µM (inactive) | > 100 µM (inactive) | – | > 100 µM (inactive) | > 100 µM (inactive) | > 100 µM (inactive) | > 100 µM (inactive) | > 100 µM (inactive) | > 100 µM (inactive) | > 100 µM (inactive) | > 100 µM (inactive) | > 100 µM (inactive) | > 100 µM (inactive) | > 100 µM (inactive) | > 100 µM (inactive) | > 100 µM (inactive) | – |
| Cc1ccccc1Nc1cn(CCOc2ccccc2)c(=O)n(CCOc2ccccc2)c1=O | > 100 µM (inactive) | > 100 µM (inactive) | > 100 µM (inactive) | 96.2 µM (inactive) | > 100 µM (inactive) | > 100 µM (inactive) | 24.6 µM (inactive) | 19 µM (inactive) | > 100 µM (inactive) | > 100 µM (inactive) | > 100 µM (inactive) | 3.33 µM (inactive) | 12.5 µM (inactive) | – | – | > 100 µM (inactive) | – | > 100 µM (inactive) | > 100 µM (inactive) |
| COc1ccc(-c2cc(=O)c3ccc(O)cc3o2)c(OC)c1OC | 79.3 µM (inactive) | 40.9 µM (inactive) | 42.8 µM (inactive) | 95.9 µM (inactive) | 87.3 µM (inactive) | 31.6 µM (inactive) | 92.3 µM (inactive) | 82.2 µM (inactive) | 60.4 µM (inactive) | > 100 µM (inactive) | 71.1 µM (inactive) | > 100 µM (inactive) | 25.4 µM (inactive) | – | 27.2 µM (inactive) | – | 28.7 µM (inactive) | – | – |
